Results: patent US10681908B2, “Molecules having pesticidal utility, and intermediates, compositions, and processes, related thereto” (Dow AgroSciences LLC, priority 2016, dated 2020)

Tests used:
Format in all cases: in vivo
[1] = system: Beet Armyworm (Spodoptera exigua, LAPHEG); assay: Bioassay on Beet Armyworm (BAW), 128-well diet tray assay; settings: 168 h, 50 μg/cm^2 on artificial diet, second instar larvae, five to seven days, 25° C., read-out: BAW % Control (or Mortality) rating
Summary of the method: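 Mortality of second-instar larvae (one to five per well) was scored after five to seven days at 25 °C under 14:10 light-dark and averaged across eight wells. Each well's diet had received 50 μg/cm^2 test molecule from a 90:10 acetone-water solution, allowed to dry before infestation.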

[2] = system: Cabbage Looper (Trichoplusia ni, TRIPNI); assay: Bioassay on Cabbage Looper (CL), 128-well diet tray assay; settings: 168 h, 50 μg/cm^2 on artificial diet, second instar larvae, five to seven days, 25° C., read-out: CL % Control (or Mortality) rating
Summary of the method: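 Percent mortality, averaged over eight wells, scored after five to seven days at 25° C. under 14:10 light-dark. Each well held 1–5 second-instar larvae on artificial diet treated with 50 μg/cm^2 test molecule applied in 90:10 acetone-water and dried.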

[3] = system: Yellow Fever Mosquito (Aedes aegypti, AEDSAE); settings: about 1 day-old larvae, 3 days, room temperature, scored on mortality
Experimental: Example C: Bioassays on Yellow Fever Mosqurro (Aedes aegypti, AEDSAE) (“YFM”)
Certain molecules disclosed in this document were tested against YFM using procedures described in the following paragraph. In the reporting of the results, the “GPA & YFM Rating Table” was used (See Table Section).
Master plates containing 400 μg of a molecule dissolved in 100 μL of dimethyl sulfoxide (DMSO) (equivalent to a 4000 ppm solution) are used. A master plate of assembled molecules contains 15 μL per well. To this plate, 135 μL of a 90:10 water:acetone mixture is added to each well. A robot (Biomek® NXP Laboratory Automation Workstation) is programmed to dispense 15 μL aspirations from the master plate into an empty 96-well shallow plate (“daughter” plate). There are 6 reps (“daughter” plates) created per master. The created daughter plates are then immediately infested with YFM larvae.
The day before plates are to be treated, mosquito eggs are placed in Millipore water containing liver powder to begin hatching (4 g. into 400 mL). After the daughter plates are created using the robot, they are infested with 220 μL of the liver powder/larval mosquito mixture (about 1 day-old larvae). After plates are infested with mosquito larvae, a non-evaporative lid is used to cover the plate to reduce drying. Plates are held at room temperature for 3 days prior to grading. After 3 days, each well is observed and scored based on mortality. The results are indicated in the table entitled “Table ABC: Biological Results” (See Table Section).

Row | SMILES | mortality at 50 µg/cm2 [1] [%] | mortality at 50 µg/cm2 [2] [%] | YFM % Control (or Mortality) rating [3]
1 | C[C@H](C[S+]([O-])CC(F)(F)F)NC(=O)c1ccc(/C(F)=C/C(c2cc(Cl)c(Br)c(Cl)c2)C(F)(F)F)cc1C(F)(F)F (stereo partly drawn) [F26, 4-((Z)-3-(4-Bromo-3,5-dichlorophenyl)-1,4,4,4-tetrafluorobut-1-en-1-yl)-N-((2R)-1-((2,2,2-trifluoroethyl)sulfinyl)propan-2-yl)-2-(trifluoromethyl)benzamide] | 50 to 100 | 50 to 100 | A (80-100)
2 | C[C@H](CS(=O)(=O)CC(F)(F)F)NC(=O)c1ccc(/C(F)=C/C(c2ccc(Br)c(Cl)c2)C(F)(F)F)cc1C(F)(F)F (stereo partly drawn) [PF5, 4-((Z)-3-(4-Bromo-3-chlorophenyl)-1,4,4,4-tetrafluorobut-1-en-1-yl)-N—((R)-1-((2,2,2-trifluoroethyl)sulfonyl)propan-2-yl)-2-(trifluoromethyl)benzamide] | 50 to 100 | 50 to 100 | B (More than 0-Less than 80)
3 | C[C@H](CSCC(F)(F)F)NC(=O)c1ccc(/C(F)=C/C(c2cc(Br)cc(Br)c2)C(F)(F)F)cc1C(F)(F)F (stereo partly drawn) [F30, 4-((Z)-3-(3,5-Dibromophenyl)-1,4,4,4-tetrafluorobut-1-en-1-yl)-N—((R)-1-((2,2,2-trifluoroethyl)thio)propan-2-yl)-2-(trifluoromethyl)benzamide] | 50 to 100 | 50 to 100 | A (80-100)
4 | C[C@H](CSCC(F)(F)F)NC(=O)c1ccc(/C(F)=C/C(c2cc(Cl)cc(Cl)c2)C(F)(F)F)cc1C(F)(F)F (stereo partly drawn) [F19, 4-((Z)-3-(3,5-Dichlorophenyl)-1,4,4,4-tetrafluorobut-1-en-1-yl)-N—((R)-1-((2,2,2-trifluoroethyl)thio)propan-2-yl)-2-(trifluoromethyl)benzamide] | 50 to 100 | 50 to 100 | A (80-100)
5 | Cc1cc(C(/C=C(\F)c2ccc(C(=O)N[C@H](C)CS(=O)(=O)CC(F)(F)F)c(C(F)(F)F)c2)C(F)(F)F)cc(C)c1Cl (stereo partly drawn) [F35, 4-((Z)-3-(4-Chloro-3,5-dimethylphenyl)-1,4,4,4-tetrafluorobut-1-en-1-yl)-N—((R)-1-((2,2,2-trifluoroethyl)sulfonyl)propan-2-yl)-2-(trifluoromethyl)benzamide] | 50 to 100 | 50 to 100 | A (80-100)
6 | C[C@H](CSCC(F)(F)F)NC(=O)c1ccc(/C(F)=C/C(c2cc(Cl)c(F)c(Cl)c2)C(F)(F)F)cc1C(F)(F)F (stereo partly drawn) [F36, 4-((Z)-3-(3,5-Dichloro-4-fluorophenyl)-1,4,4,4-tetrafluorobut-1-en-1-yl)-N—((R)-1-((2,2,2-trifluoroethyl)thio)propan-2-yl)-2-(trifluoromethyl)benzamide] | 50 to 100 | 50 to 100 | A (80-100)
7 | C=Cc1c(Cl)cc(C(/C=C(\F)c2ccc(C(=O)N[C@H](C)CSCC(F)(F)F)c(C(F)(F)F)c2)C(F)(F)F)cc1Cl (stereo partly drawn) [F32, 4-((Z)-3-(3,5-Dichloro-4-vinylphenyl)-1,4,4,4-tetrafluorobut-1-en-1-yl)-N—((R)-1-((2,2,2-trifluoroethyl)thio)propan-2-yl)-2-(trifluoromethyl)benzamide] | 50 to 100 | 50 to 100 | A (80-100)
8 | Cc1c(C(/C=C(\F)c2ccc(C(=O)N[C@H](C)CS(=O)(=O)CC(F)(F)F)c(C(F)(F)F)c2)C(F)(F)F)ccc(Cl)c1Cl (stereo partly drawn) [F132, 4-((Z)-3-(3,4-Dichloro-2-methylphenyl)-1,4,4,4-tetrafluorobut-1-en-1-yl)-N—((R)-1-((2,2,2-trifluoroethyl)sulfonyl)propan-2-yl)-2-(trifluoromethyl)benzamide] | 50 to 100 | 50 to 100 | –
9 | C[C@H](CS(=O)(=O)CC(F)(F)F)NC(=O)c1ccc(/C(F)=C/C(c2cc(Cl)cc(C(C)(F)F)c2)C(F)(F)F)cc1C(F)(F)F (stereo partly drawn) [F120, 4-((Z)-3-(3-Chloro-5-(1,1-difluoroethyl)phenyl)-1,4,4,4-tetrafluorobut-1-en-1-yl)-N—((R)-1-((2,2,2-trifluoroethyl)sulfonyl)propan-2-yl)-2-(trifluoromethyl)benzamide] | 50 to 100 | 50 to 100 | –
10 | Cc1cc(/C(F)=C/C(c2cc(Cl)c(Cl)c(Cl)c2)C(F)(F)F)ccc1C(=O)N[C@H](C)CS(=O)(=O)CC(F)(F)F (stereo partly drawn) [F6, 2-Methyl-4-((Z)-1,4,4,4-tetrafluoro-3-(3,4,5-trichlorophenyl)but-1-en-1-yl)-N—((R)-1-((2,2,2-trifluoroethyl)sulfonyl)propan-2-yl)benzamide] | 50 to 100 | 50 to 100 | –
11 | C[C@H](CS(=O)(=O)CC(F)(F)F)NC(=O)c1ccc(/C(F)=C/[C@H](c2cc(Cl)c(Cl)c(Cl)c2)C(F)(F)F)cc1C(F)(F)F [F72, 4-((R,Z)-1,4,4,4-tetrafluoro-3-(3,4,5-trichlorophenyl)but-1-en-1-yl)-N—((R)-1-((2,2,2-trifluoroethyl)sulfonyl)propan-2-yl)-2-(trifluoromethyl)benzamide] | 50 to 100 | 50 to 100 | –
12 | C[C@H](CSCC(F)(F)F)NC(=O)c1ccc(/C(F)=C/C(c2ccc(Br)c(Br)c2)C(F)(F)F)cc1C(F)(F)F (stereo partly shown) [F62] | 50 to 100 | 50 to 100 | –
13 | CSC[C@@H](C)NC(=O)c1ccc(/C(F)=C/C(c2cc(Cl)c(Cl)c(Cl)c2)C(F)(F)F)cc1C(F)(F)F (stereo partly drawn) [F75, N—((R)-1-(Methylthio)propan-2-yl)-4-((Z)-1,4,4,4-tetrafluoro-3-(3,4,5-trichlorophenyl)but-1-en-1-yl)-2-(trifluoromethyl)benzamide] | 50 to 100 | 50 to 100 | –
14 | C[C@H](CS(=O)(=O)CC(F)(F)F)NC(=O)c1ccc(/C(F)=C/C(c2cc(Cl)c(Cl)c(Cl)c2)C(F)(F)F)cc1Br (stereo partly drawn) [F8, 2-Bromo-4-((Z)-1,4,4,4-tetrafluoro-3-(3,4,5-trichlorophenyl)but-1-en-1-yl)-N—((R)-1-((2,2,2-trifluoroethyl)sulfonyl)propan-2-yl)benzamide] | 50 to 100 | 50 to 100 | –
15 | Cc1cc(/C(F)=C/C(c2cc(Cl)c(Cl)c(Cl)c2)C(F)(F)F)ccc1C(=O)N[C@H](C)C[S+]([O-])CC(F)(F)F (stereo partly drawn) [F5, 2-Methyl-4-((Z)-1,4,4,4-tetrafluoro-3-(3,4,5-trichlorophenyl)but-1-en-1-yl)-N-((2R)-1-((2,2,2-trifluoroethyl)sulfinyl)propan-2-yl)benzamide] | 50 to 100 | 50 to 100 | –
16 | CSC(C)C(C)NC(=O)c1ccc(/C(F)=C/C(c2cc(Cl)c(Cl)c(Cl)c2)C(F)(F)F)cc1C(F)(F)F (stereo not shown) [F101, (Z)—N-(3-(methylthio)butan-2-yl)-4-(1,4,4,4-tetrafluoro-3-(3,4,5-trichlorophenyl)but-1-en-1-yl)-2-(trifluoromethyl)benzamide] | 50 to 100 | 50 to 100 | –
17 | C[C@H](CS(=O)(=O)CC(F)(F)F)NC(=O)c1ccc(/C(F)=C/C(c2ccc(OC(F)(F)F)c(Cl)c2)C(F)(F)F)cc1C(F)(F)F (stereo partly drawn) [F109, 4-((Z)-3-(3-Chloro-4-(trifluoromethoxy)phenyl)-1,4,4,4-tetrafluorobut-1-en-1-yl)-N—((R)-1-((2,2,2-trifluoroethyl)sulfonyl)propan-2-yl)-2-(trifluoromethyl)benzamide] | 50 to 100 | 50 to 100 | –
18 | CCSC[C@@H](C)NC(=O)c1ccc(/C(F)=C/C(c2cc(Cl)c(Br)c(Cl)c2)C(F)(F)F)cc1C(F)(F)F (stereo partly shown) [F48] | 50 to 100 | 50 to 100 | –
19 | CCS(=O)(=O)C[C@@H](C)NC(=O)c1ccc(/C(F)=C/C(c2cc(Br)c(Cl)c(Br)c2)C(F)(F)F)cc1C(F)(F)F (stereo partly drawn) [F56, 4-((Z)-3-(3,5-Dibromo-4-chlorophenyl)-1,4,4,4-tetrafluorobut-1-en-1-yl)-N—((R)-1-(ethylsulfonyl)propan-2-yl)-2-(trifluoromethyl)benzamide] | – | – | A (80-100)
20 | C[C@H](CS(=O)(=O)CC(C)(F)F)NC(=O)c1ccc(/C(F)=C/C(c2cc(Cl)c(Cl)c(Cl)c2)C(F)(F)F)cc1C(F)(F)F (stereo partly drawn) [F97, N—((R)-1-((2,2-difluoropropyl)sulfonyl)propan-2-yl)-4-((Z)-1,4,4,4-tetrafluoro-3-(3,4,5-trichlorophenyl)but-1-en-1-yl)-2-(trifluoromethyl)benzamide] | 50 to 100 | 50 to 100 | –
